“And” between values parts separate entries of the source, which are not always exact repeats. Equal entries are not always repeated.
Tests used:
[1] = system: Helicobacter pylori (clinical isolate strain); test: Gastric ulceration after Helicobacter pylori inoculation in mice (Example 11); type: in vivo, ICR derived mice; conditions: 24.5 ml/kg × 2 × 7 PO (text: 24.5 mg/kg)
Experimental: Seven groups of 5 male ICR derived mice weighing 24±2 grams were fasted for 18 hours before the intragastric inoculation of Helicobacter pylori (clinical isolate strain) in suspension at 1.5×10^9 CFU/0.4 ml/mouse. […] Subsequently, test substances and vehicle were each administered orally twice daily (9:00 A.M. and 16:00 P.M.) for […]. omeprazole 1 mg/kg and clarithromycin 10 mg/kg in combination was used as a positive control agent and was administered orally to test animals once daily (9:00 A.M.) for 7 consecutive days. Seven days after infection, on day eight, all animals with overnight fasting were sacrificed and the stomachs were dissected along the greater curvature. Gastric ulceration was scored at four levels according to the degree of hemorrhage and the severity of ulcerative lesions: 0=normal appearance, 1=mild red spots, 2=moderate red spots and/or hemorrhage spots, 3=marked hemorrhage spots. Reduction of concurrent vehicle control score values by 50 percent or more (≧50%) is considered significant. Test substances and vehicle control (2% TWEEN 80® in 0.9% NaCl solution) were each administered orally to test animals twice daily for 7 consecutive days. The Helicobacter pylori (1.5×10^9 CFU/0.4 ml/mouse) inoculation was applied one hour before the first dosing on day 1. […]

H. pylori (ATCC 43504) = test: Minimum inhibitory concentration by agar dilution method; type: cell-based, Helicobacter pylori; design: key: scored positive (+) for inhibition/eradication of colonies growth; negative (−) for no effect upon growth colonies; conditions: 0.3 μg/ml; 37° C., 72 hours, n=2
Experimental: Minimum inhibitory concentration is determined by the agar dilution method. 2 mg of test substance, composition of geranium oil and extracts from S. flavescenes prepared for injections (MIC-1), is dissolved and serially diluted in solvent (distilled water) to desired stock concentrations. For each concentration tested, a 10 μl aliquot is added to a 48-well plate containing 0.99 ml of Columbia agar base supplemented with 7% defibrinated rabbit blood. The inoculum of H. pylori (ATCC 43504) is prepared by suspending in brain heart infustion broth to a density of 5×10^8 CFU/ml. A multiprong-incubating device is used to place approximately 5×10^5 CFU/ml per spot onto the containing agent media. […] The plates are incubated at 37° C. for 72 hours in the microaerophilic condition (mixed gas N2 85%, CO2 10%, and O2 5%) and then visually examined and scored positive (+) for inhibition/eradication of colonies growth or negative (−) for no effect upon growth colonies. […] Each concentration is evaluated in duplicate.
Minimum inhibitory concentration is determined by the agar dilution method. […] The plates are incubated at 37° C. for 72 hours in the microaerophilic condition (mixed gas N2 85%, CO2 10%, and O2 5%) and then visually examined and scored positive (+) for inhibition/eradication of colonies growth or negative (−) for no effect upon growth colonies. […] Each concentration is evaluated in duplicate. […]

[2] = Pharmacokinetics study of intravenous injection with and without geranium oil; type: in vivo, mice

CC(C)=CCCC(C)CCO (centres unmarked) [MIC-20, citronellol]
Ulceration Score Total ([1]; N=5): 3
Ulceration Score Individual ([1]; mice 1-5, score 0-3): 0 (3×) and 2 and 1

gentamicin
Result (inhibition/eradication of colonies growth) (H. pylori (ATCC 43504)): +

O=C1CCC[C@@H]2[C@H]3CCC[N+]4([O-])CCC[C@@H](CN12)[C@@H]34 (some centres unmarked) [oxymatrine]
effect of addition of geranium oil on absorption and metabolism (HPLC peak areas over time) ([2]; mouse, in vivo, iv): increase the absorption and metabolism

O=C1CCC[C@@H]2[C@H]3CCCN4CCC[C@@H](CN12)[C@@H]34 [matrine]
effect of addition of geranium oil on absorption and metabolism (HPLC peak areas over time) ([2]; intravenous injection, mice, with geranium oil vs alone): increase the absorption and metabolism

From patent US20080119567A1, “Methods of use of herbal compositions” (priority 2003, published 2008)
